Earlier results on one compound are cited in patent US11844783B2, “Formulations of bendamustine” (Eagle Pharmaceuticals, Inc., priority 2010, dated 2023).

The conditions of the data set: liquid form.

`Cn1c(CCCC(=O)O)nc2cc(N(CCCl)CCCl)ccc21` [bendamustine, Bendamustine]: the stability in water entry was “measured in hours”.
